Results from patent publication US11180462B2, “Microbiocidal oxadiazole derivatives” (SYNGENTA PARTICIPATIONS AG, priority 2015, dated 2021).

Key:
[1] = tested on: Puccinia recondita f. Sp. Tritici; assay: Fungicidal activity against Puccinia recondita f. sp. tritici / wheat / leaf disc preventative (brown rust); type: in vivo; conditions: foliar, 200 ppm in the applied formulation, wheat leaf segments, preventative, compared to untreated control leaf disks, read-out: disease control
In short: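 Compound application precedes infection: segments of wheat cv. Kanzler, sprayed at 200 ppm, are inoculated with a spore suspension after 1 day. Incubation is at 19° C. with 75% relative humidity and 12 h light/12 h darkness, and control versus untreated leaves is rated 7 to 9 days post-application.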

[2] = tested on: Puccinia recondita f. Sp. Tritici; assay: Fungicidal activity against Puccinia recondita f. sp. tritici / wheat / leaf disc curative (brown rust); type: in vivo; conditions: foliar, 24 h, 200 ppm in the applied formulation, wheat leaf segments, curative (applied 1 day after inoculation), compared to untreated control leaf disks, read-out: disease control
In short: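 Scoring is percent disease control relative to untreated segments, made 6 to 8 days after treatment. Wheat (cv. Kanzler) leaf segments received the formulated, water-diluted compound one day post-inoculation with spores, having been kept dark at 19° C and 75% RH, then incubated under 12 h light/12 h dark at the same temperature and humidity.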

[3] = tested on: Glomerella lagenarium (Colletotrichum lagenarium); assay: Fungicidal activity against Glomerella lagenarium (Colletotrichum lagenarium) liquid culture / cucumber / preventative (anthracnose); type: cell-based; conditions: Colletotrichum orbiculare; 20 ppm in the applied formulation; liquid culture (PDB), growth inhibition measured photometrically after 3 to 4 days; compared to untreated control; read-out: disease control
In short: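 Photometric read-out of fungal growth after 2–7 days, expressed as percent antifungal activity versus untreated check. Cryo-stored conidia in PDB; compound at 20 ppm; dark, 24 °C, 96% RH.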

COCCN(C)C(=O)N(C)Cc1ccc(-c2noc(C(F)(F)F)n2)cc1 [Compound 3.67, 1-(2-methoxyethyl)-1,3-dimethyl-3-[[4-[5-(trifluoromethyl)-1,2,4-oxadiazol-3-yl]phenyl]methyl]urea]
≥ 80%: pest or weed control at 200 ppm [1] | pest or weed control at 200 ppm [2] | inhibition of growth at 20 ppm [3]

CN(Cc1ccc(-c2noc(C(F)(F)F)n2)cc1)C(=O)N1CCCO1 [Compound 3.69, N-methyl-N-[[4-[5-(trifluoromethyl)-1,2,4-oxadiazol-3-yl]phenyl]methyl]-isoxazolidine-2-carboxamide]
≥ 80%: pest or weed control at 200 ppm [1] | pest or weed control at 200 ppm [2] | inhibition of growth at 20 ppm [3]

CN(CC#N)C(=O)N(C)Cc1ccc(-c2noc(C(F)(F)F)n2)cc1 [Compound 3.70, 1-(cyanomethyl)-1,3-dimethyl-3-[[4-[5-(trifluoromethyl)-1,2,4-oxadiazol-3-yl]phenyl]methyl]urea]
≥ 80%: pest or weed control at 200 ppm [1] | pest or weed control at 200 ppm [2] | inhibition of growth at 20 ppm [3]

CCN(C(=O)N(C)Cc1ccc(-c2noc(C(F)(F)F)n2)cc1)C1CC1 [Compound 3.71, 1-cyclopropyl-1-ethyl-3-methyl-3-[[4-[5-(trifluoromethyl)-1,2,4-oxadiazol-3-yl]phenyl]methyl]urea]
≥ 80%: pest or weed control at 200 ppm [1] | pest or weed control at 200 ppm [2] | inhibition of growth at 20 ppm [3]

CN(Cc1ccc(-c2noc(C(F)(F)F)n2)cc1)C(=O)N(C)C1CC1 [Compound 3.72, 1-cyclopropyl-1,3-dimethyl-3-[[4-[5-(trifluoromethyl)-1,2,4-oxadiazol-3-yl]phenyl]methyl]urea]
≥ 80%: pest or weed control at 200 ppm [1] | pest or weed control at 200 ppm [2] | inhibition of growth at 20 ppm [3]

CCOC(=O)CN(C)C(=O)N(C)Cc1ccc(-c2noc(C(F)(F)F)n2)cc1 [Compound 3.73, ethyl 2-[methyl-[methyl-[[4-[5-(trifluoromethyl)-1,2,4-oxadiazol-3-yl]phenyl]methyl]-carbamoyl- ]amino]acetate]
≥ 80%: pest or weed control at 200 ppm [1] | pest or weed control at 200 ppm [2] | inhibition of growth at 20 ppm [3]

CN(Cc1ccc(-c2noc(C(F)(F)F)n2)cc1)C(=O)N1CCCC1 [Compound 3.74, N-methyl-N-[[4-[5-(trifluoromethyl)-1,2,4-oxadiazol-3-yl]phenyl]methyl]-pyrrolidine-1-carboxamide]
≥ 80%: pest or weed control at 200 ppm [1] | pest or weed control at 200 ppm [2] | inhibition of growth at 20 ppm [3]

CCCN(C)C(=O)N(C)Cc1ccc(-c2noc(C(F)(F)F)n2)cc1 [Compound 3.75, 1,3-dimethyl-1-propyl-3-[[4-[5-(trifluoromethyl)-1,2,4-oxadiazol-3-yl]phenyl]methyl]urea]
≥ 80%: pest or weed control at 200 ppm [1] | pest or weed control at 200 ppm [2] | inhibition of growth at 20 ppm [3]

COCC1(N(C)C(=O)N(C)Cc2ccc(-c3noc(C(F)(F)F)n3)cc2)CC1 [Compound 3.76, 1-[1-(methoxymethyl)-cyclopropyl]-1,3-dimethyl-3-[[4-[5-(trifluoromethyl)-1,2,4-oxadiazol-3-yl]phenyl]methyl]urea]
≥ 80%: pest or weed control at 200 ppm [1] | pest or weed control at 200 ppm [2] | inhibition of growth at 20 ppm [3]

C#CCN(C)C(=O)N(C)Cc1ccc(-c2noc(C(F)(F)F)n2)cc1 [Compound 3.77, 1,3-dimethyl-1-prop-2-ynyl-3-[[4-[5-(trifluoromethyl)-1,2,4-oxadiazol-3-yl]phenyl]methyl]urea]
≥ 80%: pest or weed control at 200 ppm [1] | pest or weed control at 200 ppm [2] | inhibition of growth at 20 ppm [3]

C=CCN(C)C(=O)N(C)Cc1ccc(-c2noc(C(F)(F)F)n2)cc1 [Compound 3.78, 1-allyl-1,3-dimethyl-3-[[4-[5-(trifluoromethyl)-1,2,4-oxadiazol-3-yl]phenyl]methyl]urea]
≥ 80%: pest or weed control at 200 ppm [1] | pest or weed control at 200 ppm [2] | inhibition of growth at 20 ppm [3]

CC(C)N(C)C(=O)N(C)Cc1ccc(-c2noc(C(F)(F)F)n2)cc1 [Compound 3.79, 1-isopropyl-1,3-dimethyl-3-[[4-[5-(trifluoromethyl)-1,2,4-oxadiazol-3-yl]phenyl]methyl]urea]
≥ 80%: pest or weed control at 200 ppm [1] | pest or weed control at 200 ppm [2] | inhibition of growth at 20 ppm [3]

C#CCN(C(=O)N(C)Cc1ccc(-c2noc(C(F)(F)F)n2)cc1)C1CC1 [Compound 3.80, 1-cyclopropyl-3-methyl-1-prop-2-ynyl-3-[[4-[5-(trifluoromethyl)-1,2,4-oxadiazol-3-yl]phenyl]methyl]urea]
≥ 80%: pest or weed control at 200 ppm [1] | pest or weed control at 200 ppm [2] | inhibition of growth at 20 ppm [3]

CCN(CC1CC1)C(=O)N(C)Cc1ccc(-c2noc(C(F)(F)F)n2)cc1 [Compound 3.81, 1-(cyclopropylmethyl)-1-ethyl-3-methyl-3-[[4-[5-(trifluoromethyl)-1,2,4-oxadiazol-3-yl]phenyl]methyl]urea]
≥ 80%: pest or weed control at 200 ppm [1] | pest or weed control at 200 ppm [2] | inhibition of growth at 20 ppm [3]

CN(Cc1ccc(-c2noc(C(F)(F)F)n2)cc1)C(=O)N(C)C1CCC1 [Compound 3.82, 1-cyclobutyl-1,3-dimethyl-3-[[4-[5-(trifluoromethyl)-1,2,4-oxadiazol-3-yl]phenyl]methyl]urea]
≥ 80%: pest or weed control at 200 ppm [1] | pest or weed control at 200 ppm [2] | inhibition of growth at 20 ppm [3]

CN(Cc1ccc(-c2noc(C(F)(F)F)n2)cc1)C(=O)N(C)CC1CC1 [Compound 3.83, 1-(cyclopropylmethyl)-1,3-dimethyl-3-[[4-[5-(trifluoromethyl)-1,2,4-oxadiazol-3-yl]phenyl]methyl]urea]
≥ 80%: pest or weed control at 200 ppm [1] | pest or weed control at 200 ppm [2] | inhibition of growth at 20 ppm [3]

COCCN(CCOC)C(=O)N(C)Cc1ccc(-c2noc(C(F)(F)F)n2)cc1 [Compound 3.84, 1,1-bis(2-methoxyethyl)-3-methyl-3-[[4-[5-(trifluoromethyl)-1,2,4-oxadiazol-3-yl]phenyl]methyl]urea]
≥ 80%: pest or weed control at 200 ppm [1] | pest or weed control at 200 ppm [2] | inhibition of growth at 20 ppm [3]

CCN(Cc1ccc(-c2noc(C(F)(F)F)n2)cc1)C(=O)N(C)CCOC [Compound 3.85, 1-ethyl-3-(2-methoxyethyl)-3-methyl-1-[[4-[5-(trifluoromethyl)-1,2,4-oxadiazol-3-yl]phenyl]methyl]urea]
≥ 80%: pest or weed control at 200 ppm [1] | pest or weed control at 200 ppm [2] | inhibition of growth at 20 ppm [3]

CCN(Cc1ccc(-c2noc(C(F)(F)F)n2)cc1)C(=O)N1CCCO1 [Compound 3.87, N-ethyl-N-[[4-[5-(trifluoromethyl)-1,2,4-oxadiazol-3-yl]phenyl]methyl]-isoxazolidine-2-carboxamide]
≥ 80%: pest or weed control at 200 ppm [1] | pest or weed control at 200 ppm [2] | inhibition of growth at 20 ppm [3]

CCN(Cc1ccc(-c2noc(C(F)(F)F)n2)cc1)C(=O)N(C)CC#N [Compound 3.88, 1-(cyanomethyl)-3-ethyl-1-methyl-3-[[4-[5-(trifluoromethyl)-1,2,4-oxadiazol-3-yl]phenyl]methyl]urea]
≥ 80%: pest or weed control at 200 ppm [1] | pest or weed control at 200 ppm [2] | inhibition of growth at 20 ppm [3]

CCN(Cc1ccc(-c2noc(C(F)(F)F)n2)cc1)C(=O)N(CC)C1CC1 [Compound 3.89, 1-cyclopropyl-1,3-diethyl-3-[[4-[5-(trifluoromethyl)-1,2,4-oxadiazol-3-yl]phenyl]methyl]urea]
≥ 80%: pest or weed control at 200 ppm [1] | pest or weed control at 200 ppm [2] | inhibition of growth at 20 ppm [3]

CCN(Cc1ccc(-c2noc(C(F)(F)F)n2)cc1)C(=O)N(C)C1CC1 [Compound 3.90, 1-cyclopropyl-3-ethyl-1-methyl-3-[[4-[5-(trifluoromethyl)-1,2,4-oxadiazol-3-yl]phenyl]methyl]urea]
≥ 80%: pest or weed control at 200 ppm [1] | pest or weed control at 200 ppm [2] | inhibition of growth at 20 ppm [3]

CCN(Cc1ccc(-c2noc(C(F)(F)F)n2)cc1)C(=O)N(C)C1COC1 [Compound 3.91, 1-ethyl-3-methyl-3-(oxetan-3-yl)-1-[[4-[5-(trifluoromethyl)-1,2,4-oxadiazol-3-yl]phenyl]methyl]urea]
≥ 80%: pest or weed control at 200 ppm [1] | pest or weed control at 200 ppm [2] | inhibition of growth at 20 ppm [3]

CCOC(=O)CN(C)C(=O)N(CC)Cc1ccc(-c2noc(C(F)(F)F)n2)cc1 [Compound 3.92, ethyl 2-[[ethyl-[[4-[5-(trifluoromethyl)-1,2,4-oxadiazol-3-yl]phenyl]methyl]-carbamoyl]-methyl-amino]acetate]
≥ 80%: pest or weed control at 200 ppm [1] | pest or weed control at 200 ppm [2] | inhibition of growth at 20 ppm [3]

CCN(Cc1ccc(-c2noc(C(F)(F)F)n2)cc1)C(=O)N1CCCC1 [Compound 3.93, N-ethyl-N-[[4-[5-(trifluoromethyl)-1,2,4-oxadiazol-3-yl]phenyl]methyl]-pyrrolidine-1-carboxamide]
≥ 80%: pest or weed control at 200 ppm [1] | pest or weed control at 200 ppm [2] | inhibition of growth at 20 ppm [3]

CCCN(C)C(=O)N(CC)Cc1ccc(-c2noc(C(F)(F)F)n2)cc1 [Compound 3.94, 1-ethyl-3-methyl-3-propyl-1-[[4-[5-(trifluoromethyl)-1,2,4-oxadiazol-3-yl]phenyl]methyl]urea]
≥ 80%: pest or weed control at 200 ppm [1] | pest or weed control at 200 ppm [2] | inhibition of growth at 20 ppm [3]
